Literature values in patent publication EP3878534A1, “EXTRACTION AND BACK-EXTRACTION OF HYDROPHOBIC COMPOUNDS USING DEEP EUTECTIC SOLVENT WITH TUNEABLE HYDROPHOBICITY” (Wageningen Universiteit, priority 2020, dated 2021).

How the values were obtained:
[1] = octanol/water, individual compound

Log Poct (Pub Chem) [1] | SMILES | pKa
3.20 | CC1CCC(C(C)C)C(O)C1 (racemic) [DL-Menthol, 2-isopropyl-5-methylcyclohexanol] | –
3.05 | CCCCCCCC(=O)O [Octanoic acid] | –

SMILES | Log Poct (Pub Chem) [1] | pKa
CCCCCC(=O)O [Hexanoic acid] | 1.92 | 4.88
